According to patent US20250195556A1, “COMPOSITIONS, KITS, AND METHODS TO INDUCE ACQUIRED CYTORESISTANCE USING STRESS PROTEIN INDUCERS” (FRED HUTCHINSON CANCER RESEARCH CENTER, priority 2014, published 2025):
“And” between values parts separate entries of the source, which are not always exact repeats. Equal entries are not always repeated.

Columns and labels:
[1] = Plasma LDH 4 hr after IV test agents (marker of liver, kidney, lung and heart injury); format: in vivo, mice; details: 4 hr IV
IL-10 = test: Cardiac IL-10 mRNA and protein after IV N-Mgb, SnPP or both; format: in vivo, mice; details: for Cardiac mRNA: IL-10: control 0.36
Description: (§1) Thirty-two mice were divided into 4 equal groups: (1) control mice; (2) mice treated with 1 mg of N-Mgb injection (as a bolus through the tail vein); (3) mice treated with […] of SnPP (via tail vein); and (4) mice treated with combined N-Mgb 1 SnPP. After either 4 hours (n=16) or 18 hours (n=16), the mice were deeply anesthetized with pentobarbital (50 mg/kg), the abdomen was opened through a midline abdominal incision, and the kidneys were removed. To determine potential effects on extrarenal organs, a liver lobe and the heart were also removed. The tissues were iced and then extracted for protein and RNA (RNeasy Plus Mini; Qiagen, Valencia, California) and subjected to enzyme linked immunosorbent assay (ELISA) and reverse transcriptase polymerase chain reaction (RT-PCR) for HO-1, haptoglobin, and IL-10 protein and messenger RNAs (mRNAs). Zager et al. J Am Soc Nephrol 2014; 25:998-1012; Zager et al. Am J Physiol 2012; 303: F139-48. As an assessment of renal function, control mice and the 18 hour after N-Mgb+SnPP-treated mice had blood urea nitrogen (BUN) and plasma creatinine levels measured. Additionally, transverse 10% formalin fixed kidney sections ([…]) were cut and stained with hematoxylin and eosin (H&E) and periodic acid Schiff (PAS) to further assess potential injury.

Male CD-1 mice [2] = test: Maleate model of AKI (FeS, SnPP, FeS+SnPP); format: in vivo; details: 1 mg FeS or 1 μmole SnPP IV alone 18 hrs before maleate
From the text: Methods. Male CD-1 mice (25-40 grams) Charles River, Wilmington, MA) were used for all experiments. They were housed under standard vivarium conditions with free food and water access. All experiments were approved by the Fred Hutchinson Cancer Research Center IACUC in accordance with NIH guidelines.
Effects of Fe sucrose (FeS)/tin protoporphyrin (SnPP) on AKI severity. Maleate model of AKI. When injected into rodents, maleate undergoes relatively selective proximal tubule cell uptake via organic anion transporters. Once intracellular accumulation occurs, maleate is a preferred substrate for succinyl-CoA: 3-oxoacid CoA transferase. […] Ample levels of CoA are essential for fatty acid “activation”, allowing for their subsequent metabolism through the Krebs cycle, yielding ATP. In the absence of this process, proximal tubule ATP depletion and cell injury result. Additionally, maleate conjugates the sulfhydryl group of glutathione (GSH), culminating in GSH depletion and potential oxidant tubular stress.
The following experiment tested whether FeS, SnPP or combined FeS+SnPP can mitigate this form of acute kidney injury (AKI). […] The severity of kidney injury was assessed by determining plasma blood urea nitrogen (BUN) and plasma creatinine (PCr) concentrations.

Male CD-1 mice [3] = test: Glycerol model of rhabdomyolysis-induced AKI (Example 4); format: in vivo; details: IV pretreatment 18 hours before glycerol; 18 hours after glycerol
Description: Assessments of cytoresistance. Glycerol model of rhabdomyolysis-induced AKI. Twenty mice were divided into 4 equal groups (controls, mice treated with N-Mgb, SnPP, and mice treated with N-Mgb+SnPP tail vein injections) as described previously. 18 hours later, the mice were briefly anesthetized with isoflurane and immediately injected with 9 mL/kg of 50% glycerol, administered in equally divided doses into each hind limb. At 18 hours after glycerol injection, the mice were anesthetized with pentobarbital, the abdomen was opened, a blood sample for BUN and creatinine assessments was obtained from the vena cava, and the kidneys were resected. The control post-glycerol group and the N-Mgb+SnPP-pretreated glycerol group had kidney sections stained with H&E.
Calculations and statistics. All values are given as the mean […] standard error of the mean. Statistical comparisons were made by unpaired Student's t test. If multiple comparisons were made, the Bonferroni correction was applied. The severity of renal histologic injury in the glycerol AKI model was graded on a […] (least to most severe tubular necrosis and cast formation observed). The histologic results were compared by Wilcoxon rank sum test. Statistical significance was taken as a P value of <0.05.

HO-1 = test: Liver HO-1 mRNA and protein after IV N-Mgb, SnPP or both; format: in vivo, mice; details: for Liver mRNA: HO-1: control 1.1; for Liver protein: HO-1 protein: control 10.2
Description: as §1

In the case of `C=Cc1c2[n-]c(c1C)/C=c1\[n-]/c(c(C)c1C=C)=C\c1[n-]c(c(CCC(=O)O)c1C)/C=c1\[n-]c(c(C)c1CCC(=O)O)=C2.[Sn+4]` [SnPP, tin protoporphyrin, reference compound], the “Plasma LDH, Average” value ([1]; carrier 4.43) is reported as 4.51 Absorbance U LDH/ml, the “Plasma LDH” value ([1]; individual subjects) is reported as 5.00 Absorbance U LDH/ml and 3.23 Absorbance U LDH/ml and 4.54 Absorbance U LDH/ml and 5.29 Absorbance U LDH/ml and the “Cardiac mRNA: IL-10” value (IL-10; 4 h after Rx) is reported as 0.58 ± 0.16. The “Cardiac protein: IL-10” value (IL-10; 4 h after Rx, control 8.1) was 15.8 ± 10^, the “Cardiac mRNA: IL-10” value (IL-10; 18 h after Rx) was 0.53 ± 0.10 and the “Cardiac protein: IL-10” value (IL-10; 18 h after Rx, control 8) was 23.4 ± 14^. The “Severity of maleate-induced renal injury (BUN, PCr)” value (Male CD-1 mice [2]) was “Neither SnPP alone nor FeS alone significantly altered”, the “Protection against glycerol-induced AKI (BUN/creatinine levels)” value (Male CD-1 mice [3]) was “virtually no effect” and the “Liver mRNA: HO-1” value (HO-1; 4 h after Rx) was 3.15 ± 0.25. The “Liver protein: HO-1 protein” value (HO-1; 4 h after Rx) was 7.4 ± 0.7, the “Liver mRNA: HO-1” value (HO-1; 18 h after Rx) was 2.56 ± 0.21 and the “Liver protein: HO-1 protein” value (HO-1; 18 h after Rx) was 18 ± 2.5.
